Test results from patent US9855230B2 (ViiV Healthcare UK (No. 5) Limited, priority 2014, dated 2018).
Structures can show the parent of a compound that is named as a salt. Where two headings read alike, the source gives them in different places.

Assays:
[1] = Compound cytotoxicity (CC50), XTT-based colorimetric assay; assay type: cell-based; details: human; uninfected MT2 cells, day 4, XTT assay
Protocol: Compound cytotoxicity and the corresponding CC50 values were determined using the same protocol as described in the antiviral assay except that uninfected cells were used. Cytotoxicity was assessed on day 4 in uninfected MT2 cells by using a XTT (2,3-bis[2-Methoxy-4-nitro-5-sulfophenyl]-2H-tetrazolium-5-carboxyanilide inner salt)-based colorimetric assay (Sigma-Aldrich, St Louis, Mo.).

[2] = test system: recombinant NL4-3 virus (nef section replaced with Renilla luciferase gene) in MT-2 cells; assay: whole plant or invertebrate; assay type: cell-based, HIV; details: NL43, luciferase activity in MT-2 cells infected 4-5 days with recombinant NL4-3 virus
Excerpt: A recombinant NL4-3 proviral clone, in which a section of the nef gene was replaced with the Renilla luciferase gene, was used to make the reference virus used in these studies.
Supernatent was harvested after 2-3 days and the amount of virus present was titered in MT-2 cells using luciferase enzyme activity as a marker by measuring luciferase enzyme activity. Luciferase was quantitated using the EnduRen Live Cell Substrate from Promega (Madison, Wis.). Antiviral activities of compounds toward the recombinant virus were quantified by measuring luciferase activity in MT-2 cells infected for 4-5 days with the recombinant virus in the presence of serial dilutions of the compound.

Compound | CC50 at 4 day [1] | EC50 ([2]; read-out: Activity) | EC50 ([2]; read-out: EC50)
COc1ccc(Cn2c(Br)cnc2[C@H](Cc2ccccc2)NC(=O)NS(=O)(=O)c2ccc(C)cc2)cc1 [Example 83, (S)-N-((1-(5-bromo-1-(4-methoxybenzyl)-1H-imidazol-2-yl)-2-phenylethyl)carbamoyl)-4-methylbenzenesulfonamide] | > 33 µM | > 1 µM | 
Cc1ccccc1S(=O)(=O)NC(=O)N[C@@H](Cc1ccccc1)c1nccn1-c1ccc2scnc2c1 [Example 70, (S)-N-((1-(1-(benzo[d]thiazol-5-yl)-1H-imidazol-2-yl)-2-phenylethyl)carbamoyl)-2-methylbenzenesulfonamide] | > 100 µM | < 0.1 µM | 
COc1ccc(-n2ccnc2[C@H](Cc2ccccc2)NC(=O)NS(=O)(=O)c2cccc(Cl)c2Cl)cc1 [Example 56, (S)-2,3-dichloro-N-((1-(1-(4-methoxyphenyl)-1H-imidazol-2-yl)-2-phenylethyl)carbamoyl)benzenesulfonamide] | > 100 µM | < 0.1 µM | 
Cc1ccccc1S(=O)(=O)NC(=O)N[C@@H](Cc1cc(F)cc(F)c1)c1ncccc1-c1ccnc(F)c1C [Example 126, (S)-N-((2-(3,5-difluorophenyl)-1-(2′-fluoro-3′-methyl-[3,4′-bipyridin]-2-yl)ethyl)carbamoyl)-2-methylbenzenesulfonamide, TFA] | > 33 µM | > 1 µM | 1.52 µM
CCCOc1ccc(-n2ccnc2[C@H](Cc2ccccc2)NC(=O)NS(=O)(=O)c2ccccc2C)cc1Cl [Example 25, (S)-N-((1-(1-(3-chloro-4-propoxyphenyl)-1H-imidazol-2-yl)-2-phenylethyl)carbamoyl)-2-methylbenzenesulfonamide] | 50 µM | < 0.1 µM | 
COC(=O)Nc1ccc(-n2ccnc2[C@H](Cc2ccccc2)NC(=O)NS(=O)(=O)c2cccc3ccccc23)cc1 [Example 3, (S)-methyl (4-(2-(1-(3-(naphthalen-1-ylsulfonyl)ureido)-2-phenylethyl)-1H-imidazol-1-yl)phenyl)carbamate] | > 100 µM | 0.1 to 1 µM | 0.1 µM
Cc1ccc(-n2ccnc2[C@H](Cc2ccccc2)NC(=O)NS(=O)(=O)c2ccccc2C)cc1Cl [Example 32, (S)-N-((1-(1-(3-chloro-4-methylphenyl)-1H-imidazol-2-yl)-2-phenylethyl)carbamoyl)-2-methylbenzenesulfonamide] | > 100 µM | < 0.1 µM | 
COC(=O)Nc1ccc(-n2ccnc2[C@H](Cc2ccccc2)NC(=O)NS(=O)(=O)Cc2cccc(Cl)c2)cc1 [Example 48, (S)-methyl (4-(2-(1-(3-((3-chlorobenzyl)sulfonyl)ureido)-2-phenylethyl)-1H-imidazol-1-yl)phenyl)carbamate] | > 100 µM | < 0.1 µM | 0.07 µM
Cc1ccc(-n2ccnc2[C@H](Cc2ccccc2)NC(=O)NS(=O)(=O)c2ccccc2C)cc1 [Example 13, (S)-2-methyl-N-((2-phenyl-1-(1-(p-tolyl)-1H-imidazol-2-yl)ethyl)carbamoyl)benzenesulfonamide] | > 100 µM | < 0.1 µM | 
CCOc1ccc(-c2cccnc2[C@H](Cc2cc(F)cc(F)c2)NC(=O)NS(=O)(=O)c2ccccc2C)cc1F [Example 123, (S)-N-((2-(3,5-difluorophenyl)-1-(3-(4-ethoxy-3-fluorophenyl)pyridin-2-yl)ethyl)carbamoyl)-2-methylbenzenesulfonamide, TFA] | 55 µM | 0.1 to 1 µM | 0.6 µM
Cc1ccccc1S(=O)(=O)NC(=O)N[C@@H](Cc1cc(F)cc(F)c1)c1ncccc1-c1ccc(C#N)cc1 [Example 128, (S)-N-((1-(3-(4-cyanophenyl)pyridin-2-yl)-2-(3,5-difluorophenyl)ethyl)carbamoyl)-2-methylbenzenesulfonamide, TFA] | 80 µM | > 1 µM | 
Cc1ccccc1S(=O)(=O)NC(=O)N[C@@H](Cc1cc(F)cc(F)c1)c1ncccc1-c1ccc(CN2CCOCC2)s1 [Example 122, (S)-N-((2-(3,5-difluorophenyl)-1-(3-(5-(morpholinomethyl)thiophen-2-yl)pyridin-2-yl)ethyl)carbamoyl)-2-methylbenzenesulfonamide, 2 TFA] | > 100 µM | 0.1 to 1 µM | 
CCOc1ccc(-n2ccnc2[C@H](Cc2ccccc2)NC(=O)NS(=O)(=O)c2cccc(Cl)c2Cl)cc1 [Example 57, (S)-2,3-dichloro-N-((1-(1-(4-ethoxyphenyl)-1H-imidazol-2-yl)-2-phenylethyl)carbamoyl)benzenesulfonamide] | > 100 µM | < 0.1 µM | 0.03 µM
COc1cccc(-n2ccnc2[C@H](Cc2ccccc2)NC(=O)NS(=O)(=O)c2ccccc2C)c1 [Example 9, (S)-N-((1-(1-(3-methoxyphenyl)-1H-imidazol-2-yl)-2-phenylethyl)carbamoyl)-2-methylbenzenesulfonamide] | > 100 µM | < 0.1 µM | 0.05 µM
COC(=O)Nc1ccc(-n2ccnc2[C@@H](Cc2ccccc2)NC(=O)NS(=O)(=O)c2ccccc2C)cc1 [Example 39] | > 11 µM | > 1 µM | 1.42 µM
Cc1ccccc1S(=O)(=O)NC(=O)N[C@@H](Cc1cc(F)cc(F)c1)c1ncccc1-c1ccc2cn(C)nc2c1 [Example 119, (S)-N-((2-(3,5-difluorophenyl)-1-(3-(2-methyl-2H-indazol-6-yl)pyridin-2-yl)ethyl)carbamoyl)-2-methylbenzenesulfonamide, TFA] | 58 µM | 0.1 to 1 µM | 
CCOc1ccc(-c2cccnc2[C@@H](Cc2ccccc2)NC(=O)NS(=O)(=O)c2ccccc2C)cc1 [Example 105, (R)-N-((1-(3-(4-ethoxyphenyl)pyridin-2-yl)-2-phenylethyl)carbamoyl)-2-methylbenzenesulfonamide, TFA] | 75 µM | > 1 µM | 16.7 µM
Cc1ccccc1S(=O)(=O)NC(=O)N[C@@H](Cc1cc(F)cc(F)c1)c1ncccc1-c1cccc(C(=O)OC(C)(C)C)c1 [Example 130, (S)-tert-butyl 3-(2-(2-(3,5-difluorophenyl)-1-(3-(o-tolylsulfonyl)ureido)ethyl)pyridin-3-yl)benzoate, TFA] | 53 µM | > 1 µM | 
CCOc1ccc(-c2cccnc2[C@H](Cc2cc(F)cc(F)c2)NC(=O)NS(=O)(=O)c2ccccc2C)cc1 [Example 94, (S)-N-((2-(3,5-difluorophenyl)-1-(3-(4-ethoxyphenyl)pyridin-2-yl)ethyl)carbamoyl)-2-methylbenzenesulfonamide, TFA] | > 100 µM | 0.1 to 1 µM | 
COC(=O)Nc1ccc(-c2cccnc2[C@H](Cc2cc(F)cc(F)c2)NC(=O)NS(=O)(=O)c2ccccc2Cl)cc1 [Example 91, (S)-methyl (4-(2-(1-(3-((2-chlorophenyl)sulfonyl)ureido)-2-(3,5-difluorophenyl)ethyl)pyridin-3-yl)phenyl)carbamate, TFA] | > 100 µM | 0.1 to 1 µM | 
Cc1ccccc1-n1ccnc1[C@H](Cc1ccccc1)NC(=O)NS(=O)(=O)c1ccccc1C [Example 28, (S)-2-methyl-N-((2-phenyl-1-(1-(o-tolyl)-1H-imidazol-2-yl)ethyl)carbamoyl)benzenesulfonamide] | > 100 µM | > 1 µM | 
Cc1ccccc1S(=O)(=O)NC(=O)N[C@@H](Cc1ccccc1)c1nccn1-c1cccc(OC(F)(F)F)c1 [Example 19, (S)-2-methyl-N-((2-phenyl-1-(1-(3-(trifluoromethoxy)phenyl)-1H-imidazol-2-yl)ethyl)carbamoyl)benzenesulfonamide] | > 33 µM | 0.1 to 1 µM | 
CCOc1ccc(-n2ccnc2[C@H](Cc2ccccc2)NC(=O)NS(=O)(=O)c2ccccc2C)cc1Cl [Example 26, (S)-N-((1-(1-(3-chloro-4-ethoxyphenyl)-1H-imidazol-2-yl)-2-phenylethyl)carbamoyl)-2-methylbenzenesulfonamide] | > 100 µM | < 0.1 µM | 
NC(=O)c1cc(-c2cccnc2[C@H](Cc2cc(F)cc(F)c2)NC(=O)NS(=O)(=O)c2ccccc2Cl)ccc1F [Example 95, (S)-5-(2-(1-(3-((2-chlorophenyl)sulfonyl)ureido)-2-(3,5-difluorophenyl)ethyl)pyridin-3-yl)-2-fluorobenzamide, TFA] | > 100 µM | 0.1 to 1 µM | 
CCOc1ccc(-c2cccnc2C(Cc2ccccc2)NC(=O)NS(=O)(=O)c2ccccc2C)cc1 (centres unmarked) [Example 93, N-((1-(3-(4-ethoxyphenyl)pyridin-2-yl)-2-phenylethyl)carbamoyl)-2-methylbenzenesulfonamide] | > 100 µM | 0.1 to 1 µM | 0.42 µM
COC(=O)Nc1ccc(-n2ccnc2[C@H](Cc2ccccc2)NC(=O)NS(=O)(=O)c2ccccc2Cl)cc1 [Example 36, (S)-methyl (4-(2-(1-(3-((2-chlorophenyl)sulfonyl)ureido)-2-phenylethyl)-1H-imidazol-1-yl)phenyl)carbamate] | > 100 µM | < 0.1 µM | 0.06 µM
COc1ccc(-c2c(C(Cc3ccccc3)NC(=O)NS(=O)(=O)c3ccccc3C)nnn2C)cc1 (racemic) [Example 87, (rac)-N-((1-(5-(4-methoxyphenyl)-1-methyl-1H-1,2,3-triazol-4-yl)-2-phenylethyl)carbamoyl)-2-methylbenzenesulfonamide] | > 100 µM | 0.1 to 1 µM | 0.22 µM
